Laboratory results taken from patent US10851102B2, “Imidazole and triazole containing bicyclic compounds as JAK inhibitors” (THERAVANCE BIOPHARMA R&D IP, LLC, priority 2019, dated 2020).

How the values were obtained:
[1] = molecular target: JAK1 (Homo sapiens (Human), UniProt P23458); assay: Biochemical JAK and Tyk2 kinase assays (LanthaScreen): JAK1; conditions: 1 h pre-incubation, ATP at Km; pIC50 converted to pKi by Cheng-Prusoff
Method in brief: (§1)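 Recombinant GST-tagged JAK enzymes with GFP-tagged STAT1 peptide substrate in 50 mM HEPES pH 7.5, 10 mM MgCl2, 1 mM EGTA, 0.01% Brij-35. Compounds pre-incubated 1 h at ambient temperature before ATP start; 1 h reaction, then EDTA plus Tb-anti-pSTAT1 (pTyr701) TR-FRET read. IC50 from 4-parameter fit, converted to pKi by Cheng-Prusoff.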

[2] = tested on: IL-2 stimulated pSTAT5 in Tall-1 T cells (JAK3); assay: Cellular JAK3 potency assay: inhibition of IL-2 stimulated pSTAT5 in Tall-1 T cells; format: cell-based; conditions: IL-2 300 ng/ml, pSTAT5 AlphaLisa, Tall-1 human T cell line; read-out: Tall-1 (pIC50) (converted)
Method in brief: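 Human Tall-1 T cells (45,000/well) preincubated with compound 1 h at 37 °C, then stimulated with IL-2 (final 300 ng/ml) for 30 min. Lysates read for pSTAT5 (Tyr694/699) by AlphaLISA luminescence. IC50 from signal-versus-concentration curves, reported as pIC50 (mean±SD).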

[3] = molecular target: JAK2 (Homo sapiens (Human), UniProt O60674); assay: Biochemical JAK and Tyk2 kinase assays (LanthaScreen): JAK2; conditions: 1 h pre-incubation, ATP at Km; pIC50 converted to pKi by Cheng-Prusoff
Method in brief: as §1

[4] = molecular target: Tyk2 (Homo sapiens (Human), UniProt P29597); assay: Biochemical JAK and Tyk2 kinase assays (LanthaScreen): Tyk2; conditions: 1 h pre-incubation, ATP at Km; pIC50 converted to pKi by Cheng-Prusoff
Method in brief: as §1

[5] = Colon and plasma mouse pharmacokinetics; format: in vivo; conditions: mouse; ratio of colon AUC to plasma AUC; male Balb/c mice, 10 mg/kg PO
Description: Assay 6: Colon and Plasma Mouse Pharmacokinetics
6 male Balb/c mice were administered 10 mg/kg of compound in 1% HPMC+0.1% Tween-80 by PO administration. At 0.5, 2 and 6 hours after dose administration, animals were anesthetized, and terminal blood samples were collected by cardiac puncture, followed by collection of colon contents and colon tissue.
Blood samples were collected into K2EDTA and stored on wet ice until processed to plasma by centrifugation (12,000 rpm at 4° C.). Plasma samples were transferred to cluster tubes and placed on dry ice prior to freezer storage. The colon contents from each animal were collected at each terminal blood collection time point. The colon tissues were flushed with saline and patted dry. The colon and colon content tissues were homogenized using sterile water containing 0.1% formic acid 9:1 (water:tissue, v/w). The homogenized tissues and colon contents were transferred to cluster tubes and placed on dry ice prior to freezer storage. All samples were analyzed using LC/MS/MS against analytical standards.
The composite pharmacokinetic parameters of the compounds were determined by non-compartmental analysis using Phoenix WinNonlin Version 6 (Certara, St. Louis, Mo.) and using mean values from 2 animals/time point. For plasma concentrations below the quantification limit (BQL), the lowest concentration measurable or the BLOQ (below limit of quantification) was used.
A colon to plasma ratio was determined as the ratio of the colon AUC to the plasma AUC.

[6] = molecular target: JAK3 (Homo sapiens (Human), UniProt P52333); assay: Biochemical JAK and Tyk2 kinase assays (LanthaScreen): JAK3; conditions: for Ki: 1 h pre-incubation, ATP at Km, pIC50 converted to pKi by Cheng-Prusoff, read-out: JAK 3 (pKi) (converted); for JAK3 (pKi)-JAK1 (pKi): difference of pKi values, selectivity JAK3 over JAK1
Method in brief: as §1

Chain of JAK3 (P52333 whole entry): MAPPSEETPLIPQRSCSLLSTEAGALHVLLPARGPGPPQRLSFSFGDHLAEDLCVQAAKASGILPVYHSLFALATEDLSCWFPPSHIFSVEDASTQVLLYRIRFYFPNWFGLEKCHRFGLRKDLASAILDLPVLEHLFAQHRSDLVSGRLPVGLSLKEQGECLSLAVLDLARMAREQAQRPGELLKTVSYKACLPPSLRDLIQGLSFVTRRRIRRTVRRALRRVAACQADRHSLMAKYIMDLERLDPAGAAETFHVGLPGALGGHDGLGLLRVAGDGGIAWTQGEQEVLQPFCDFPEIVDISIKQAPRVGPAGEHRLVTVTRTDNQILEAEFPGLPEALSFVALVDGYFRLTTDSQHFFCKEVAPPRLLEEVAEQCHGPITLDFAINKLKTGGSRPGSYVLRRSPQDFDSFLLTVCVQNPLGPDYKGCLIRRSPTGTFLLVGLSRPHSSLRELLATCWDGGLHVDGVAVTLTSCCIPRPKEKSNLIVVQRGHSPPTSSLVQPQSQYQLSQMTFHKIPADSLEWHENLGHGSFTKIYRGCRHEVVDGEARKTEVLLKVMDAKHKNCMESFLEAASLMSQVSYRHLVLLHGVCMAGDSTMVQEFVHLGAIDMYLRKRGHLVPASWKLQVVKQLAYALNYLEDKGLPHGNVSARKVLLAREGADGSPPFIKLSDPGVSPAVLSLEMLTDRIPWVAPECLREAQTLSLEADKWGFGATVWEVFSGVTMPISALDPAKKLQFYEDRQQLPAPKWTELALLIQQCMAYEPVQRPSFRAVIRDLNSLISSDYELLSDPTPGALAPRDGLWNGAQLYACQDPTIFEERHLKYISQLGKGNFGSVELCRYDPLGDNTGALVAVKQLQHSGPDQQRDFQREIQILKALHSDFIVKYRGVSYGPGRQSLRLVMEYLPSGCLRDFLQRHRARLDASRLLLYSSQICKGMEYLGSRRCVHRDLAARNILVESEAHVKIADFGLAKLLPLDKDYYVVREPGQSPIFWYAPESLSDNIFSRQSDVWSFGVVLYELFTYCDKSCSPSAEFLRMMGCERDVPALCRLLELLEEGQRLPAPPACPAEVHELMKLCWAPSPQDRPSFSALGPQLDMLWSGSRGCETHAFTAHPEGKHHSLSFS
Chain of JAK2 (O60674 whole entry): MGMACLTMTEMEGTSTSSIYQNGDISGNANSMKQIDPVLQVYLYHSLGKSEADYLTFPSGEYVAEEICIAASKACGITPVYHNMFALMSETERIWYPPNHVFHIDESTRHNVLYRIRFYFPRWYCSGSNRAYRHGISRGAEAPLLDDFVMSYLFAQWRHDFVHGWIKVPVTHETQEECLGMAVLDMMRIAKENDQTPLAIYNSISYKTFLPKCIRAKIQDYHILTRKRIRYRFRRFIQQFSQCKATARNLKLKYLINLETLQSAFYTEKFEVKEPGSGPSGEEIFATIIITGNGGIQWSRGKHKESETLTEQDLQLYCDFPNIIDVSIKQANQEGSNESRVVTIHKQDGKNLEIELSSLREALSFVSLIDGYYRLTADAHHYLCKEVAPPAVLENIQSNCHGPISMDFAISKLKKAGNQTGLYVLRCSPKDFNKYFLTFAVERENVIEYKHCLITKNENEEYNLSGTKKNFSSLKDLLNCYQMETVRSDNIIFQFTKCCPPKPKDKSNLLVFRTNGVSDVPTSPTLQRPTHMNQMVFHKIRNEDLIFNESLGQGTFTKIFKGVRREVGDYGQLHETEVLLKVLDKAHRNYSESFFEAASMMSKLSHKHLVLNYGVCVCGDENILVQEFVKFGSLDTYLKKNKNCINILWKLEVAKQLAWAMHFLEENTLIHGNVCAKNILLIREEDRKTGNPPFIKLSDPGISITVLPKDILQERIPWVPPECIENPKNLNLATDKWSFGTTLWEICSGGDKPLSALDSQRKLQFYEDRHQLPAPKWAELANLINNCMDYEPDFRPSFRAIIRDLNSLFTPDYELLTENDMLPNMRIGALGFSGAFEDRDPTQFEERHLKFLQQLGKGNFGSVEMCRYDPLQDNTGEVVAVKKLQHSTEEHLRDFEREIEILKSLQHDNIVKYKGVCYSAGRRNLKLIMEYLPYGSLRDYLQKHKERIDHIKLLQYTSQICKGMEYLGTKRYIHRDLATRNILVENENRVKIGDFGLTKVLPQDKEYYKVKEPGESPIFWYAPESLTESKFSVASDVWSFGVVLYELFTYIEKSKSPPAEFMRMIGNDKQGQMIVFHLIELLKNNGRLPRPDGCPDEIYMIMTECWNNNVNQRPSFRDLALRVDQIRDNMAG
Chain of Tyk2 (P29597 whole entry): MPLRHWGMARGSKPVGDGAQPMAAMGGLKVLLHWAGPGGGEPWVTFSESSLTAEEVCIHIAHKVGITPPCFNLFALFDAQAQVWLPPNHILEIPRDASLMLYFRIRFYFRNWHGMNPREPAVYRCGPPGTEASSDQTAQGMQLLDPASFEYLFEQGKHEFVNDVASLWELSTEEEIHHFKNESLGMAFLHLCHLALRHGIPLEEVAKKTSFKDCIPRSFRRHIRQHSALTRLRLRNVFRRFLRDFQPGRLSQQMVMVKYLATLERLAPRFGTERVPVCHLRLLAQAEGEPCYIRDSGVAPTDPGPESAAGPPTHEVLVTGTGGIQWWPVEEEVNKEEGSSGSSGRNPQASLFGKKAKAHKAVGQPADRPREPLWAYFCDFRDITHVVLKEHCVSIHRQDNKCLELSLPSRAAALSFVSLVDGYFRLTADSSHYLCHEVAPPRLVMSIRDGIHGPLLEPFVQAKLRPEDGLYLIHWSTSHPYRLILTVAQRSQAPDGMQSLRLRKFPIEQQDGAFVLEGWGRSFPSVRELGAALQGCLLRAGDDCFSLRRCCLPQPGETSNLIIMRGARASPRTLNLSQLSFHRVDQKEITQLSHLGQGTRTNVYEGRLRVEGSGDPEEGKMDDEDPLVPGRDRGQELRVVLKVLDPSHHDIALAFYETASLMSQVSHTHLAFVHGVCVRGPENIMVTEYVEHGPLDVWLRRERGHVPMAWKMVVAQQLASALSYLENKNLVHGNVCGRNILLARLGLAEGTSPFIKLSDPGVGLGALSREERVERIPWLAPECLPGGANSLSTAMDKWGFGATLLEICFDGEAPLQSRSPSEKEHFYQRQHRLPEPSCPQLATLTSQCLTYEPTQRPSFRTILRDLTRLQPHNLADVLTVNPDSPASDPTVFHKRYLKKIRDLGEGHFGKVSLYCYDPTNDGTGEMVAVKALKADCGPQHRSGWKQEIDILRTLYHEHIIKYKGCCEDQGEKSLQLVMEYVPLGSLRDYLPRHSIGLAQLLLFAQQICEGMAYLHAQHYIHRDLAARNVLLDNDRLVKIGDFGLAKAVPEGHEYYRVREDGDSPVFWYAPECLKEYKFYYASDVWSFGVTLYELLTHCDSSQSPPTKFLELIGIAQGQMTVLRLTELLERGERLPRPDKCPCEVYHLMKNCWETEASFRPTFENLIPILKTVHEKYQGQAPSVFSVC
Chain of JAK1 (P23458 whole entry): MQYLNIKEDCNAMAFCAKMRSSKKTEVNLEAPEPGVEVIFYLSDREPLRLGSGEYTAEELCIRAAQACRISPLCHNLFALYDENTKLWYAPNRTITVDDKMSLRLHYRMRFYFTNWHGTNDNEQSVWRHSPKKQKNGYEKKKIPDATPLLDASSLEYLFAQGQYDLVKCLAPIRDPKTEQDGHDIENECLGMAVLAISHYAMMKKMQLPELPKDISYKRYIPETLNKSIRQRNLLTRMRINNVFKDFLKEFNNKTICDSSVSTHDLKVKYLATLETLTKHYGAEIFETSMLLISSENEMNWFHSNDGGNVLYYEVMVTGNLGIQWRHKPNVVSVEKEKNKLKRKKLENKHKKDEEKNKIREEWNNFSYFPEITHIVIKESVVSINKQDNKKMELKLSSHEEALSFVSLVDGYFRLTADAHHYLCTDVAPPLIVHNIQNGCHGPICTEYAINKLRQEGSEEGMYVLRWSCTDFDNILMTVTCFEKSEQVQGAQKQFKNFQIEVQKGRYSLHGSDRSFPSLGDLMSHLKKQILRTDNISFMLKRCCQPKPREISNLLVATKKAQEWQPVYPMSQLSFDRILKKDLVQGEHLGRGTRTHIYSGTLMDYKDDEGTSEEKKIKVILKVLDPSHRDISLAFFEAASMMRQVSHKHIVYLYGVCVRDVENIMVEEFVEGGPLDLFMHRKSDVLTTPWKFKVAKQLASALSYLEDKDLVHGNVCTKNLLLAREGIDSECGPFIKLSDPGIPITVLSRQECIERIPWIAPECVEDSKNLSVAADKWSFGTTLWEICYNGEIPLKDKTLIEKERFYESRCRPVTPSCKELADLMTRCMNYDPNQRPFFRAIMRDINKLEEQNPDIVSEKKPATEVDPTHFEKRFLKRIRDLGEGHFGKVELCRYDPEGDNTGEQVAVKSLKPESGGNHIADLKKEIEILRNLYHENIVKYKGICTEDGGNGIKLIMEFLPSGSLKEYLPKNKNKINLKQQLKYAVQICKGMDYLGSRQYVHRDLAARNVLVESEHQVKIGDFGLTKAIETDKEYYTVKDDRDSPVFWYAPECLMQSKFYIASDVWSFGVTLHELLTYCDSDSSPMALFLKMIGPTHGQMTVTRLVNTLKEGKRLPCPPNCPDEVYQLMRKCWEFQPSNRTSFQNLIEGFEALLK

SMILES: C=CC(=O)N1CC(COc2cc(-c3ccc(O)c(Cl)c3)cn3cncc23)C1 [Example 12, 1-(3-(((6-(3-chloro-4-hydroxyphenyl)imidazo[1,5-a]pyridin-8-yl)oxy)methyl)azetidin-1-yl)prop-2-en-1-one]
- JAK 1 (pKi) [1]: E (E represents a pKi value of 7 or below (Ki of 100 nM or above))
- IC50 [2]: 31.6 to 200 nM
- JAK 2 (pKi) [3]: E (E represents a pKi value of 7 or below (Ki of 100 nM or above))
- Tyk 2 (pKi) [4]: E (E represents a pKi value of 7 or below (Ki of 100 nM or above))
- Kp [5]: > 200
- Ki [6]: 0.1 to 1 nM
- JAK3 (pKi)-JAK1 (pKi) [6]: A (A represents a value of 3 or above)

SMILES: C=CC(=O)N1CC(COc2cc(-c3cc(F)c(O)cc3CC)cn3cncc23)C1 [Example 13, 1-(3-(((6-(2-ethyl-5-fluoro-4-hydroxyphenyl)imidazo[1,5-a]pyridin-8-yl)oxy)methyl)azetidin-1-yl)prop-2-en-1-one]
- JAK 1 (pKi) [1]: E (E represents a pKi value of 7 or below (Ki of 100 nM or above))
- IC50 [2]: ≤ 31.6 nM
- JAK 2 (pKi) [3]: E (E represents a pKi value of 7 or below (Ki of 100 nM or above))
- Tyk 2 (pKi) [4]: E (E represents a pKi value of 7 or below (Ki of 100 nM or above))
- Kp [5]: > 200
- Ki [6]: 0.1 to 1 nM
- JAK3 (pKi)-JAK1 (pKi) [6]: A (A represents a value of 3 or above)
